Measurements from patent US7186725B2, “Anti-inflammatory compositions and methods” (Genzyme Corporation, priority 2003, dated 2007).
Where two headings read alike, the source gives them in different places.

Assays:
purified rat T cells = assay: Concanavalin A activated T-cell proliferation assay ([3H] thymidine uptake); type: cell-based; conditions: 96 h, @ 1 mM
Protocol: Compounds of Formula I (above), based on an ethyl dimethylaminopropylurea (1) parent structure, have been discovered as active agents against a modified Concanavalin A activated T-cell proliferation assay using purified rat T-cells. These cells were incubated for 4 days and pulsed with [^3H] thymidine for the last 16 hrs of incubation. [^3H] Thymidine uptake was measured as the mean counts per minute (cpm) of duplicate experimental cultures. The compounds of the present invention were discovered by screening a compound library. (directed analogs of parent compound 1) using an assay designed to identify inhibitors of Concanavalin A stimulated T-cell proliferation. Normal dermal fibroblasts and kidney epithelial cell toxicity assays were run on active compounds to eliminate non-selective cytotoxic compounds.

[1] = test system: Autoimmune Encephalomyelitis (EAE); assay: Autoimmune Encephalomyelitis (EAE) model, PLP 139-151 immunized mice; type: in vivo, SJL/J mice; conditions: 25 mg/kg daily day 1 to 16, FIG. 1
[2] = test system: Distal colitis induced by DNBS; assay: Inflammatory Bowel Disease: DNBS-induced distal colitis in rats; type: in vivo; conditions: rat
Protocol: CM Hogaboam et al., Eur. J. Pharmacol.; 309; 261 (1996) Groups of 3 derived-male, overnight-fasted rats weighing 150±10 g are used. Distal colitis is induced by intra-colonic instillation of 0.5 ml/rat of DNBS (2,4-dinitrobenzene sulfonic acid, 60 mg/ml in ethanol 30%) after which air (2 ml) is gently injected through the cannula to ensure that the solution remains in the colon. […] The animals are sacrificed 24 hours after the final dose of test compound administration and each colon is removed and weighed.

[3] = Table 2, read-out: Thymidine Uptake (% Reduction @ 1 mM)
[4] = Table 3, read-out: Thymidine Uptake (% Reduction @ 1 mM)
[5] = Table 1, read-out: Thymidine Uptake (% Reduction @ 1 mM)

| SMILES | inhibition at 1000 µM (purified rat T cells; [4]) [%] | inhibition at 1000 µM (purified rat T cells; [5]) [%] | also measured |
| --- | --- | --- | --- |
| CCNC(=O)NCCCN(CCO)Cc1ccccc1 [Compound 30] |  |  | inhibition at 1000 µM (purified rat T cells; [3]): 12% |
| CN(C)CCCNC(=O)Nc1nccc2ccccc12 [Compound 49] | 36 |  |  |
| CCNC(=O)Nn1cnnc1 [Compound 22] |  | 19 |  |
| CN(C)CCCNC(=O)NCCc1cccc(Cl)c1 [Compound 48] | 26 |  |  |
| CCCNCCCNC(=O)NCC [Compound 17] |  | 25 |  |
| CCCN(CCCNC(=O)NCC)CC1CC1 [Compound 29] |  |  | inhibition at 1000 µM (purified rat T cells; [3]): 23% |
| CN(C)CCCNC(=O)NCCCCO [Compound 41] | 12 |  |  |
| CCNC(=O)Nc1cc[nH]n1 [Compound 11] |  | 35 |  |
| CCNC(=O)NCCCN1CCN(c2cccc(C)c2C)CC1 [Compound 57, 1-{3′-[4-(2,3-xylyl)-piperazin-1-yl]-propyl}-3-ethyl urea] |  |  | effect on disease onset (ADSS) [1]: had an effect on disease onset; effect on maximum severity (ADSS) [1]: not on maximum severity |
| CCNC(=O)NCCCN1CCN(c2cc(C)ccc2C)CC1 [Compound 39] |  |  | inhibition at 1000 µM (purified rat T cells; [3]): 23% |
| CN(C)CCCNC(=O)NCc1ccccc1Cl [Compound 46] | 21 |  |  |
| CCNC(=O)NCCCN1CCN(c2ncc(C(F)(F)F)cc2Cl)CC1 [Compound 32] |  |  | inhibition at 1000 µM (purified rat T cells; [3]): 27% |
| COc1ccccc1CNC(=O)NCCCN(C)C [Compound 43] | 24 |  |  |
| CCNC(=O)NN1CCCC1 [Compound 9] |  | 16 |  |
| CCNC(=O)NC(C(=O)OCC)C(=O)OCC [Compound 23] |  | 12 |  |
| O=C(O)c1cc(/N=N/c2ccc(S(=O)(=O)Nc3ccccn3)cc2)ccc1O [Sulfasalazine, reference compound] |  |  | Ave. (colon to 100 g body weight ratio) ([2]; PO 300 mg/kg × 7): 0.551; Inhibition (of net increase of colon to 100 g body weight ratio, relative to vehicle with DNBS) ([2]; PO × 7): 41%; Net Inc. (net increase of colon to 100 g body weight ratio) ([2]; PO × 7): 0.254 |
| CCNC(=O)Nc1cnccn1 [Compound 20] |  | 55 |  |
| CCNC(=O)Nc1c(F)c(F)c(C#N)c(F)c1F [Compound 15] |  | 26 |  |
| CCNC(=O)NCCc1cccc(Cl)c1 [Compound 5] |  | 24 |  |
| CN(C)CCCNC(=O)Nc1ncc([N+](=O)[O-])s1 [Compound 50] | 22 |  |  |
| COCCCNC(=O)NCCCN(C)C [Compound 53] | 26 |  |  |
| CCNC(=O)Nc1cccc(S(N)(=O)=O)c1 [Compound 14] |  | 18 |  |
| CCNC(=O)NC(C)(C)CC(C)=O [Compound 12] |  | 35 |  |
| CCNC(=O)NCCCN1CCc2ccccc2C1Cc1ccccc1 (stereo not shown) [Compound 34] |  |  | inhibition at 1000 µM (purified rat T cells; [3]): 12% |
| CN(C)CCCNC(=O)NCCC(c1ccccc1)c1ccccc1 [Compound 44] | 21 |  |  |
| CN(C)CCCNC(=O)NCC12CCC3CC(CC1C3)C2 (stereo not shown) [Compound 40] | 20 |  |  |
| CN(C)CCCNC(=O)NCCc1cccs1 [Compound 55] | 17 |  |  |
| C=CCNC(=O)NCC [Compound 24] |  | 18 |  |
